The supplement of paper PMC9780213

What was measured:
Conditions in all cases: treatment time: 24 h
[1] = tested on: U2OS-mOrange2-Peroxisome; test: cell count relative to DMSO control (panel B, lysosome/peroxisome/lipid stain) (fraction of control); higher = more cells (less toxicity)
Procedure: (§1)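 U2OS-derived cells in 384-well plates were treated for 24 h with a 7-point 2-fold dilution series (top dose 20 µM for most compounds; final max DMSO 1%), then fixed, stained in four marker panels and imaged on a Cellomics ArrayScan. Cell count per treatment (three replicate plates merged) is given as a fraction of DMSO control. Panel A used parental U2OS, panel B U2OS-mOrange2-Peroxisome, panel C1 U2OS-LMNB1-TUBA1B-ACTB (DRAQ5 nuclei).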

[2] = tested on: U2OS-LMNB1-TUBA1B-ACTB; test: cell count relative to DMSO control (panel C1, DRAQ5/ER stain) (fraction of control); higher = more cells (less toxicity)
Procedure: as §1

[3] = tested on: U2OS; test: cell count relative to DMSO control (panel A, nuclei/RNA/PMG/mitochondria stain) (fraction of control); higher = more cells (less toxicity)
Procedure: as §1

Row | Structure (SMILES) | cell count ([1]; 0.3125 µM) | cell count ([1]; 0.625 µM) | cell count ([1]; 1.25 µM) | cell count ([1]; 2.5 µM) | cell count ([1]; 5 µM) | cell count ([1]; 10 µM) | cell count ([1]; 20 µM) | cell count ([2]; 0.3125 µM) | cell count ([2]; 0.625 µM) | cell count ([2]; 1.25 µM) | cell count ([2]; 2.5 µM) | cell count ([2]; 5 µM) | cell count ([2]; 10 µM) | cell count ([2]; 20 µM) | cell count ([3]; 0.3125 µM) | cell count ([3]; 0.625 µM) | cell count ([3]; 1.25 µM) | cell count ([3]; 2.5 µM) | cell count ([3]; 5 µM) | cell count ([3]; 10 µM) | cell count ([3]; 20 µM) | cell count ([1]; 0.07812 µM) | cell count ([1]; 0.15625 µM) | cell count ([2]; 0.07812 µM) | cell count ([2]; 0.15625 µM) | cell count ([3]; 0.07812 µM) | cell count ([3]; 0.15625 µM)
1 | CO[C@H]1C[C@@H]2CC[C@@H](C)[C@@](O)(O2)C(=O)C(=O)N2CCCC[C@H]2C(=O)O[C@H]([C@H](C)C[C@@H]2CC[C@@H](O)[C@H](OC)C2)CC(=O)[C@H](C)/C=C(\C)[C@@H](O)[C@@H](OC)C(=O)[C@H](C)C[C@H](C)/C=C/C=C/C=C/1C [sirolimus] | 0.81 | 0.644 | 0.677 | 0.521 | 0.453 | 0.451 | 0.372 | 1.12 | 0.947 | 1.07 | 0.944 | 0.94 | 0.711 | 0.745 | 1.08 | 0.8 | 0.967 | 1.05 | 0.947 | 0.766 | 0.755 | – | – | – | – | – | –
2 | COc1ccc(C[C@H](N)C(=O)N[C@H]2[C@@H](O)[C@H](n3cnc4c(N(C)C)ncnc43)O[C@@H]2CO)cc1 [puromycin] | 1.07 | 1.09 | 1.11 | 1.29 | 1.52 | – | – | 1.11 | 1.13 | 0.957 | 1.02 | 1.02 | – | – | 1.03 | 1.06 | 0.995 | 1.03 | 0.957 | – | – | 1.01 | 0.924 | 1.1 | 0.997 | 1.06 | 1.05
3 | CC(C)n1nc(-c2ccc3oc(N)nc3c2)c2c(N)ncnc21 [MLN0128] | 0.42 | 0.439 | 0.393 | 0.301 | 0.0428 | – | – | 0.7 | 0.698 | 0.614 | 0.557 | 0.271 | – | – | 0.521 | 0.481 | 0.454 | 0.408 | 0.204 | – | – | 0.578 | 0.426 | 0.774 | 0.748 | 0.646 | 0.584
4 | O=C(/C=C/c1cccc(S(=O)(=O)Nc2ccccc2)c1)NO [belinostat] | 0.814 | 0.805 | 1.05 | 1.14 | 1.19 | 1.18 | 0.581 | 1.04 | 1.04 | 1.02 | 0.99 | 1.09 | 0.701 | 0.397 | 1.07 | 1.03 | 1.1 | 1.07 | 1.04 | 0.557 | 0.351 | – | – | – | – | – | –
5 | O=NN(CCCl)C(=O)NC1CCCCC1 [lomustine] | 0.854 | 1.08 | 0.93 | 0.952 | 1.22 | 1.12 | 0.879 | 0.906 | 0.972 | 0.927 | 0.932 | 1.02 | 0.856 | 0.73 | 0.856 | 0.819 | 0.952 | 0.895 | 1.02 | 0.818 | 0.7 | – | – | – | – | – | –
6 | CCCC[C@@H](C=O)NC(=O)[C@H](CC(C)C)NC(=O)[C@H](CC(C)C)NC(C)=O [MG-101] | 0.692 | 0.642 | 0.697 | 0.608 | 0.346 | 0.242 | 0.16 | 1.15 | 1.07 | 1.08 | 0.727 | 0.443 | 0.173 | 0.0712 | 0.986 | 0.975 | 0.773 | 0.429 | 0.198 | 0.14 | 0.0899 | – | – | – | – | – | –
7 | C=CCNC1=C2C[C@@H](C)C[C@H](OC)[C@H](O)[C@@H](C)/C=C(\C)[C@H](OC(N)=O)[C@@H](OC)/C=C\C=C(/C)C(=O)NC(=CC1=O)C2=O [tanespimycin] | 0.767 | 0.7 | 0.405 | 0.144 | 0.148 | – | – | 1.06 | 0.956 | 0.938 | 0.501 | 0.0736 | – | – | 0.929 | 0.901 | 0.686 | 0.307 | 0.0406 | – | – | 1.48 | 0.803 | 1.06 | 1.03 | 1 | 0.976
8 | COc1cccc2c1C(=O)c1c(O)c3c(c(O)c1C2=O)C[C@@](O)(C(C)=O)C[C@@H]3O[C@H]1C[C@H](N)[C@H](O)[C@H](C)O1 [daunorubicin] | 0.527 | 0.605 | 0.618 | 0.398 | 0.152 | – | – | 1.02 | 0.912 | 0.645 | 0.613 | 0.472 | – | – | 0.96 | 0.829 | 0.457 | 0.376 | 0.183 | – | – | 0.537 | 0.529 | 0.953 | 0.99 | 0.92 | 0.928
9 | O=C(Oc1cc(S(=O)(=O)c2ccccc2)ccc1[N+](=O)[O-])c1ccc(Cl)cc1 | 0.726 | 0.838 | 0.873 | 1.02 | 1.08 | 1.26 | 0.846 | 1.05 | 1.06 | 0.969 | 0.953 | 0.983 | 1.13 | 0.989 | 1.05 | 1.08 | 1.11 | 1.06 | 0.997 | 0.944 | 0.966 | – | – | – | – | – | –
10 | O=C(/C=C\n1cnc(-c2cc(C(F)(F)F)cc(C(F)(F)F)c2)n1)NNc1cnccn1 [selinexor] | 0.905 | 0.657 | 0.758 | 0.705 | 0.676 | 0.598 | 0.484 | 1.1 | 1.06 | 1.12 | 1.15 | 1.07 | 0.834 | 0.693 | 1.01 | 0.994 | 1.03 | 0.971 | 0.9 | 0.779 | 0.502 | – | – | – | – | – | –
11 | Cc1[nH]c2ccccc2c1CCNC(=O)c1cccs1 [CK-636] | 0.793 | 0.764 | 0.737 | 0.756 | 0.783 | 1.04 | 0.977 | 1.16 | 1.06 | 1.09 | 1.04 | 0.908 | 0.887 | 0.858 | 1.06 | 0.971 | 1.01 | 1.01 | 0.977 | 0.961 | 0.865 | – | – | – | – | – | –
12 | COc1ccc(C[C@H]2NC[C@H](O)[C@H]2OC(C)=O)cc1 [anisomycin] | 0.678 | 0.277 | 0.0792 | 0.0323 | 0.133 | 0.195 | 0.1 | 0.84 | 0.602 | 0.226 | 0.0722 | 0.0685 | 0.0611 | 0.166 | 0.794 | 0.502 | 0.186 | 0.0402 | 0.0213 | 0.0357 | 0.053 | – | – | – | – | – | –
13 | CC(=O)N[C@@H](CC(C)C)C(=O)N[C@@H](CC(C)C)C(=O)N[C@H](C=O)CCCN=C(N)N [leupeptin] | 0.839 | 0.806 | 0.749 | 0.771 | 0.895 | 0.952 | 1.27 | 1.07 | 1.1 | 1.06 | 1.16 | 1.05 | 1.02 | 1.01 | 1.07 | 1.09 | 0.933 | 1.09 | 1.04 | 1.03 | 1.01 | – | – | – | – | – | –
14 | COc1cccc2c1C(=O)c1c(O)c3c(c(O)c1C2=O)C[C@@](O)(C(=O)CO)C[C@@H]3O[C@H]1C[C@H](N)[C@H](O)[C@H](C)O1 [doxorubicin] | 0.747 | 0.899 | 0.86 | 1.1 | 0.37 | – | – | 1.12 | 1.23 | 0.925 | 0.807 | 0.624 | – | – | 0.932 | 0.836 | 0.84 | 0.754 | 0.34 | – | – | 0.712 | 0.735 | 1.08 | 1.17 | 0.933 | 1.03
15 | O=C1c2c(O)ccc(O)c2C(=O)c2c(NCCNCCO)ccc(NCCNCCO)c21 [mitoxantrone] | 0.648 | 0.642 | 0.605 | 0.544 | 0.548 | – | – | 0.532 | 0.465 | 0.434 | 0.403 | 0.371 | – | – | 0.662 | 0.503 | 0.411 | 0.455 | 0.447 | – | – | 1.16 | 0.953 | 1.05 | 0.693 | 0.956 | 0.887
16 | O=C(N/N=C/c1ccc(O)c(O)c1)c1cc2ccccc2cc1O [dynasore] | 0.779 | 0.85 | 0.742 | 1.03 | 0.645 | 0.497 | 0.501 | 1.02 | 1.05 | 1.06 | 1.12 | 0.953 | 0.966 | 0.826 | 0.981 | 1.01 | 0.925 | 1.02 | 0.867 | 0.807 | 0.638 | – | – | – | – | – | –
